Data set [1] deals with human TNF-α transgenic mice. Kind of data set: RA paw score in human TNF-α transgenic mice. Conditions: for RA progression by paw score at week 8 (FIG. 4): siRNA delivered with PN73.
Experimental: For human TNF-α animal disease models, two transgenic models were used. The tg197 mice were acquired from Pasteur Hellenic Institute (Athens, Greece), and the B6.SJL-Tg(TNF) N21 mice were purchased from Taconic, Inc. (Germantown, N.Y.). The genotypes of both human TNF-α transgenic mouse models were performed by suppliers. […] All treatments were by tail vein injection twice a week. […] A similar dose regimen was used for B6.SJL-Tg(TNF) N21 mice. Clinical scores were based on a previously described scoring system (2, 3) as follows: 0 (normal), 1 (edema or distortion of paw or ankle joints), 2 (distortion of paw and ankle joints), or 3 (ankylosis of wrist or ankle joints). The sum of all four paws was scored twice a week with a maximum score of 12 per mouse.
For Hellenic transgenic mice, RA scores were determined (blinded to treatment) using the following criteria: 0, normal; 1, edema or distortion of paw or ankle joints; 2 distortion of paw and ankle joints; 3, ankylosis of wrist or ankle joints.
Human NF-α expressing mice were purchase from the Hellenic Pasture Institute, Greece) at 5 weeks old. […] During the injection periods, plasma samples were collected for ELISA testing (R&D Systems, Cat#SSTA00C), and paw scores were taken twice a week as an accepted index of RA disease progression and therapeutic efficacy (Table 19).
Due to the difference in the starting point (some animals present with scores at earlier points), the scores have been adjusted to 0 for all animals in the experiments. Each paw is given a score between 0 and 3, with the highest score of 12, according to the following scoring index. • 0: Normal • 1: edema or distortion of paw or ankle joints • 2: distortion of paw and ankle joints • 3: ankylosis of wrist or ankle joints.
A further data set has as its system TNF-α mRNA. Kind of data set: TNF-α knockdown in human monocytes (branch DNA).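 Further: LPS-activated human CD14+ monocytes, TNF-α mRNA read by branched DNA assay and normalized to cypB mRNA, knockdown compared with random-sequence Qneg siRNA as negative control.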
A further data set relates to 9L/LacZ cells. Kind of data set: siRNA uptake by flow cytometry in 9L/LacZ cells. The class given is cell-based, rat. Conditions: peptide/siRNA complex.
In data set [2] the test system is interferon response markers (IL-1β, INF-α, IL-6, IL-8, IL-12, MIP-1α, IFN-γ, TNF-α). Kind of data set: interferon responsiveness, marker protein ELISA. Conditions: for Relative protein expression level of IFN-γ / Relative protein expression level of IL-12 / Relative protein expression level of INF-α: Lipofectamine transfection; for interferon response (ELISA): regardless of transfection reagent. In kind it is cell-based. The protocol:
Interferon responsiveness was assayed by ELISA (protein) and bDNA (mRNA levels).
A general note: ELISA stands for enzyme-linked immunosorbent assay.

[3] abbreviates: siRNA 4 nM complexed with 1.6 uM PN73.
The mark [4] stands for this setting: siRNA 4 nM complexed with 1.6 uM PN509.
Where [5] appears, read: siRNA 20 nM complexed with 0.5 uM PN250.
The mark [6] stands for this setting: siRNA 20 nM complexed with 0.75 uM PN250.
Where [7] appears, read: siRNA 20 nM complexed with 1 uM PN250.

Experimental for 9L/LacZ cells: Cells were plated the day before so that they were ˜50-80% confluent at time of transfection. For complexes, siRNA and peptide were diluted in Opti-MEM® media (Invitrogen), then mixed and allowed to complex 5-10 minutes before adding to cells washed with PBS. Final concentration of siRNA was 500 nM at each peptide concentration (2-50 μM). The conjugate, also diluted in Opti-MEM® media, was added to cells at final concentrations ranging from 62.5 nM to 500 nM. At 500 nM concentration, we also combined with 20% FBS just before adding to washed cells. Cells were transfected for 3 hours at 37° C., 5% CO2. Cells were washed with PBS, treated with trypsin and then analyzed by flow cytometry. siRNA uptake was measured by intensity of Cy5 fluorescence and cellular viability assessed by addition of propidium iodide.
Uptake was measured using 9L/lacZ cells transfected as described in Example 2. Cells were washed with PBS, treated with trypsin and then analyzed by flow cytometry. siRNA uptake was measured by intensity of FAM fluorescence and cellular viability assessed by addition of propidium iodide.
Text for TNF-α mRNA: For mRNA measurement, branch DNA technology from Genospectra (CA) was used according to manufacturer's specification. Human monocytes (CD14+) treated with LPS induce TNF-α-specific mRNA within approximately 2 hrs, followed by peak levels of TNF-α protein 2 hrs later. siRNAs were screened for knockdown activity by transfecting monocytes with siRNA candidate sequences using Lipofectamine 2000, treating infected cells with LPS, and measuring TNF-α mRNA levels approximately 16 hrs later.
To quantitate mRNA level in the cells, both house keeping gene (cypB) and target gene (TNF-α) mRNA were measured, and the reading for TNF-α was normalized with cypB to obtain relative luminescence unit.
Qneg represents a random siRNA sequence and functions as the negative control in these experiments.

Turning to “GCCUGUACCUCAUCUACUC (siRNA; chemistry not fully specified) [YC12]”, the “Relative effect of siRNA, paw score” value in data set [1] (group TNF #6) is reported as “Overall low paw score. YC12”. The “KD (%) TNF-α” value was 43.60% in the data set with TNF-α mRNA (setting [3]); 64.37% in the data set on TNF-α mRNA (setting [4]); 17.06% with TNF-α mRNA (setting [5]); 21.66% in the data set with TNF-α mRNA (setting [6]); 15.91% in the data set on TNF-α mRNA (setting [7]).

Turning to C(YGRKKRRQRRRG)2 [PN204], the “Percent Uptake LacZ Cells” value in the data set with 9L/LacZ cells is given as 83%.

With “AAGCUCCAGUGGCUGAACCGC (siRNA; delivered as complex with delivery-enhancing peptide, further chemistry not given here) [LC9]”, the figures for the “KD (%) TNF-α” value with TNF-α mRNA (setting [3]) and in the data set with TNF-α mRNA (setting [4]) were 40.32% and 58.20%, respectively.

Turning to “AAUCGGCCCGACUAUCUCGACUU (chemistry not given here) [LC1]”, the “KD (%) TNF-α” value in the data set on TNF-α mRNA (setting [3]) is reported as 20.08%; in the data set with TNF-α mRNA (setting [4]) it was 31.13%.

Turning to “GCCUGUAGCCCAUGUUGUA (chemistry not given here) [TNF-α-2]”, the “RA progression by paw score at week 8 (FIG. 4)” value in data set [1] is recorded as “delayed RA progression”.

Consider “AAUCAGCCGCAUCGCCGUCUC (siRNA; delivered as complex with delivery-enhancing peptide, further chemistry not given here) [LC7]”, for which the “KD (%) TNF-α” value with TNF-α mRNA (setting [3]) came to 42.76%; with TNF-α mRNA (setting [4]), 56.11%.

On to “AAGCCUGUAGCCCAUGUUGUA (siRNA; delivered as complex with delivery-enhancing peptide, further chemistry not given here) [LC19]”, for which the figures for the “KD (%) TNF-α” value with TNF-α mRNA (setting [3]) and in the data set on TNF-α mRNA (setting [4]) were 61.83% and 56.38%, respectively.

Turning to “AAUGGCGUGGAGCUGAGAGAU (siRNA; delivered as complex with delivery-enhancing peptide, further chemistry not given here) [LC2]”, the “KD (%) TNF-α” value in the data set on TNF-α mRNA (setting [3]) is listed as 19.06%; in the data set with TNF-α mRNA (setting [4]) it was 37.04%.

Take “AAGGGUGACCGACUCAGCGcU (siRNA; as printed in the source, key not given here) [LC6]”: the “KD (%) TNF-α” value in the data set on TNF-α mRNA (setting [3]) was found to be 44.10%; with TNF-α mRNA (setting [4]), 50.19%.

Consider “CCUCAGCCUCUUCUCCUUCCUGA (chemistry not given here) [LC12]”, for which the “KD (%) TNF-α” value in the data set with TNF-α mRNA (setting [3]) was determined as 40.61%; in the data set on TNF-α mRNA (setting [4]), 17.03%.

With UAGGGUCGGAACCCAAGCUUA [LC20], the “Relative protein expression level of IFN-γ” value in data set [2] was “Background”. Moreover, in data set [2], the “Relative protein expression level of IL-12” value is reported as “Background”. Also, the “Relative protein expression level of INF-α” value in data set [2] is listed as “Background”. The “interferon response (ELISA)” value in data set [2] was “no interferon response”. In addition, the “delay in RA progression relative to lower doses” value in data set [1] (2 mg/kg LC20, PN73 1:5) is “greatest relative observed delay in RA progression”. Moreover, the “Relative effect of siRNA, effectiveness relative to Ramicade” value in data set [1] (group TNF #1 (LC20, Ramicade, PBS)) is reported as “LC20 is as effective as”. Also, the “Relative effect of siRNA, paw score” value is “Overall low paw score” in data set [1] (group TNF #4) and “Overall low paw score. YC12” in data set [1] (group TNF #6). Moreover, in data set [1] (group TNF #7), the “Relative effect of siRNA, effectiveness relative to Ramicade by week 8” value is “LC20 and TNF-α9 are more”. Besides, the “Relative effect of siRNA, effectiveness relative to Ramicade by week 11” value in data set [1] (group TNF #7) is listed as “week 8; LC20 is equally”. In addition, in data set [1], the “RA progression by paw score at week 8 (FIG. 4)” value was “delayed RA progression”. In the data set with TNF-α mRNA (absence of PN73, 0-2.5 nM), the “TNF-α knockdown activity (FIG. 6-C)” value is listed as “little knockdown activity”. Also, the “KD (%) TNF-α” value at TNF-α mRNA (setting [3]) is reported as 42.68%; at TNF-α mRNA (setting [4]) it was 71.12%; on TNF-α mRNA (setting [5]) it was −3.80%; at TNF-α mRNA (setting [6]) it was 10.72%; at TNF-α mRNA (setting [7]), 26.53%. Also, the “decrease in TNF-α gene expression relative to Qneg control (FIG. 6-B)” value in the data set on TNF-α mRNA (siRNA complexed with PN73 1:1, 0-2.5 nM) is listed as approximately 30%.

Regarding “AACUGAAAGCAUGAUCCGGGA (siRNA; delivered as complex with delivery-enhancing peptide, further chemistry not given here) [LC4]”, the “KD (%) TNF-α” value was 26.67% in the data set on TNF-α mRNA (setting [3]) and 22.71% in the data set with TNF-α mRNA (setting [4]).

For “AACCUCCUCUCUGCCAUCAAG (siRNA; delivered as complex with delivery-enhancing peptide, further chemistry not given here) [LC3]”, the figures for the “KD (%) TNF-α” value with TNF-α mRNA (setting [3]) and in the data set with TNF-α mRNA (setting [4]) were 23.17% and 30.14%, respectively.

On to “CUUGUGAUUAUUUAUUAUUUA (siRNA; delivered as complex with delivery-enhancing peptide, further chemistry not given here) [LC18]”, for which the “KD (%) TNF-α” value in the data set on TNF-α mRNA (setting [3]) turned out to be 63.44%; in the data set with TNF-α mRNA (setting [4]), 58.13%.

As to “GCCCGACUAUCUCGACUUU (siRNA; delivered as complex with delivery-enhancing peptide, further chemistry not given here) [YC17]”, the “KD (%) TNF-α” value is given as 17.30% in the data set on TNF-α mRNA (setting [5]), 29.82% in the data set with TNF-α mRNA (setting [6]) and 24.68% in the data set on TNF-α mRNA (setting [7]).

Regarding “AAUCUCGACUUUGCCGAGUCU (chemistry not given here) [LC5]”, the “KD (%) TNF-α” value amounted to 46.78% in the data set with TNF-α mRNA (setting [3]) and 34.93% with TNF-α mRNA (setting [4]).

“GCGUGGAGCUGAGAGAUAA (siRNA; delivered as complex with delivery-enhancing peptide, further chemistry not given here) [YC11]”: the “KD (%) TNF-α” value in the data set with TNF-α mRNA (setting [5]) amounted to 13.70%; in the data set on TNF-α mRNA (setting [6]) it was 21.09%; in the data set with TNF-α mRNA (setting [7]) it was 33.10%.

In the case of “GCAGGUCUACUUUGGGAUC (siRNA; delivered as complex with delivery-enhancing peptide, further chemistry not given here) [YC18]”, the “KD (%) TNF-α” value in the data set with TNF-α mRNA (setting [5]) is 20.72%; in the data set on TNF-α mRNA (setting [6]) it was 17.82%; in the data set on TNF-α mRNA (setting [7]) it was 24.66%.

In the case of “CUGAUUAAGUUGUCUAAACAA (siRNA; delivered as complex with delivery-enhancing peptide, further chemistry not given here) [LC16]”, the entries for the “KD (%) TNF-α” value in the data set on TNF-α mRNA (setting [3]) and with TNF-α mRNA (setting [4]) were 55.91% and 40.06%, respectively.

As to “AACCAAUGCCCUCCUGGCCAA (siRNA; delivered as complex with delivery-enhancing peptide, further chemistry not given here) [LC14]”, the “KD (%) TNF-α” value in the data set with TNF-α mRNA (setting [3]) was 50.76%; in the data set on TNF-α mRNA (setting [4]), 42.78%.

Take “CCGACUCAGCGCUGAGAUCAA (siRNA; chemistry not fully specified) [LC17]”: in data set [2], the “Relative protein expression level of IFN-γ” value is given as “Background”, the “Relative protein expression level of IL-12” value is listed as “Background”, the “Relative protein expression level of INF-α” value is recorded as “Background” and the “interferon response (ELISA)” value is “no interferon response”. Further, the “Relative effect of siRNA, paw score” value in data set [1] (group TNF #6) is recorded as “Overall low paw score. YC12”. In addition, in the data set on TNF-α mRNA (setting [3]), the “KD (%) TNF-α” value was determined as 50.78%. Also, in the data set with TNF-α mRNA (setting [4]), the “KD (%) TNF-α” value was 48.94%.

For the substance “AACCCAUGUGCUCCUCACCCA (siRNA; delivered as complex with delivery-enhancing peptide, further chemistry not given here) [LC8]”, the “KD (%) TNF-α” value was found to be 41.24% in the data set on TNF-α mRNA (setting [3]) and 47.35% in the data set with TNF-α mRNA (setting [4]).

With “CCAGGGACCUCUCUCUAAU (siRNA; delivered as complex with delivery-enhancing peptide, further chemistry not given here) [TNF-4]”, the figures for the “KD (%) TNF-α” value with TNF-α mRNA (setting [5]), in the data set on TNF-α mRNA (setting [6]) and with TNF-α mRNA (setting [7]) were 0.90%, 14.39% and 26.47%, respectively.

(Values after US20100113332A1, “METHOD OF TREATING AN INFLAMMATORY DISEASE BY DOUBLE STRANDED RIBONUCLEIC ACID” (NASTECH PHARMACEUTICAL COMPANY INC., priority 2004, published 2010).)
